≈ marks a conversion by molar mass, not a printed value. Blank lines part the entries; values can stand above or below the compound they belong to. Calls of active or inactive are those of the source. No cut-off for these calls is given here.
Assays:
Mus musculus [1] = test: Antidiabetic activity in db/db mouse assessed as reduction in blood glucose level at 3 mg/kg, po qd administered 1 hr prior glucose challenge measured after 21 days by oral glucose tolerance test; format: functional; set-up: scale not given: the % may be the effect or the level left
[2] = Clearance in Sprague-Dawley rat at 1 mg/kg, iv; format: ADME, organism-based; set-up: dose 1 mg/kg, route intravenous; details: in vivo
Salmonella typhimurium = test: Genotoxicity in Salmonella typhimurium; format: toxicity, organism-based; details: salmonella enterica subsp. enterica serovar typhimurium
Mus musculus [3] = test: Antidiabetic activity in db/db mouse assessed as increase in fasting plasma insulin level at 0.01 to 0.3 mg/kg, po qd administered 1 hr prior glucose challenge measured after 21 days; format: functional, organism-based
Rattus norvegicus [4] = test: Half life in Sprague-Dawley rat at 5 mg/kg, po; format: ADME, organism-based; set-up: dose 5 mg/kg, route oral; details: in vivo
[5] = Protein binding in human plasma; format: ADME, cell-free; details: read-out: PPB (converted)
[6] = Half life in human liver microsomes; format: ADME
Rattus norvegicus [7] = test: Cmax in Sprague-Dawley rat at 5 mg/kg, po; format: ADME, organism-based; set-up: dose 5 mg/kg, route oral; details: in vivo
[8] = Solubility of the compound at pH 6.5; format: physicochemical; details: buffer
[9] = Oral bioavailability in Sprague-Dawley rat at 5 mg/kg administered as HMPC SDD formulation; format: ADME, organism-based; details: in vivo
Rattus norvegicus [10] = test: Stimulation of glucose-induced GLP-1 release in cannulated Sprague-Dawley rat at 0.3 mg/kg, po administered 1 hr prior glucose challenge in presence of DPP4 inhibitor relative to vehicle-treated control; format: functional, organism-based; set-up: dose 0.3 mg/kg
[11] = Inhibition of cytochrome P450 (unknown origin); format: ADME, Homo sapiens
Mus musculus [12] = test: Antidiabetic activity in C57BL/6J mouse assessed as reduction in glucose AUC at 0.3 mg/kg, po by oral glucose tolerance test relative to vehicle-treated control; format: functional; set-up: scale not given: the % may be the effect or the level left
HepG2 = test: Cytotoxicity against human HepG2 cells at 40 uM; format: cell-based; details: hepg2, 40 µM
Mus musculus [13] = test: Antidiabetic activity in db/db mouse assessed as reduction in blood glucose level at 0.03 mg/kg, po qd administered 1 hr prior glucose challenge measured after 21 days by oral glucose tolerance test; format: functional; set-up: scale not given: the % may be the effect or the level left
Mus musculus [14] = test: Antidiabetic activity in C57BL/6J mouse assessed as reduction in glucose AUC at 0.1 mg/kg, po by oral glucose tolerance test relative to vehicle-treated control; format: functional; set-up: scale not given: the % may be the effect or the level left
Homo sapiens [15] = test: Antidiabetic activity in human assessed as increase in total GLP1 AUC at 0.6 mg, po measured on day 1; format: functional
[16] = Volume of distribution at steady state in Sprague-Dawley rat at 1 mg/kg, iv; format: ADME, organism-based; set-up: dose 1 mg/kg, route intravenous; details: in vivo, read-out: Vdss
[17] = target: T1, Nuclear receptor subfamily 1 group I member 2 (Homo sapiens, UniProt O75469); test: Activation of PXR (unknown origin); format: ADME
T1 sequence (O75469 whole entry): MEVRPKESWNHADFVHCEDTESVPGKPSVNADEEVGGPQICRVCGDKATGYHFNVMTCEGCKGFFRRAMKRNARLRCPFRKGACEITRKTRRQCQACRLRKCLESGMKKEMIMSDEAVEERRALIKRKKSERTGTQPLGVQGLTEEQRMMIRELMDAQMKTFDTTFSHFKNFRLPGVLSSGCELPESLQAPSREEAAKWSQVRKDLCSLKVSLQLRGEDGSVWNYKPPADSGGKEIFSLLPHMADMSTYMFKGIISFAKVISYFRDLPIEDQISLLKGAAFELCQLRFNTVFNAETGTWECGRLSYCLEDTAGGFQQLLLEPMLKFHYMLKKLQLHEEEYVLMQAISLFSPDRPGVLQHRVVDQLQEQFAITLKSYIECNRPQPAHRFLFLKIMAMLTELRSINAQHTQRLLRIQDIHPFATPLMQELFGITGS

Homo sapiens [18] = test: Antidiabetic activity in human assessed as increase in total GLP1 AUC at 10 mg, po measured on day 1; format: functional
Oryctolagus cuniculus = species: Oryctolagus cuniculus; test: Toxicity in rabbit at plasma concentration 20 uM by electrophysiology study; format: organism-based; details: in vivo
Rattus norvegicus [19] = test: AUC (total) in Sprague-Dawley rat at 5 mg/kg, po; format: ADME, organism-based, Plasma; set-up: dose 5 mg/kg, route oral; details: in vivo
Homo sapiens [20] = test: Antidiabetic activity in human assessed as reduction in 24 hrs glucose AUC at 0.1 to 120 mg, po measured on day 1; format: functional, organism-based
Homo sapiens [21] = test: Antidiabetic activity in po dosed human assessed as increase in 24 hrs GLP1 AUC measured on day 1; format: functional, organism-based
Rattus norvegicus [22] = test: Stimulation of glucose-induced GLP-1 release in cannulated Sprague-Dawley rat at 0.3 mg/kg, po administered 1 hr prior glucose challenge relative to vehicle-treated control; format: functional, organism-based; set-up: dose 0.3 mg/kg
[23] = Solubility of the compound in 50% PEG400/ 50% PBS solution; format: physicochemical
Cynomolgus monkey = test: Toxicity in cynomolgus monkey at plasma concentration 20 uM by electrophysiology study; format: organism-based, Macaca fascicularis; details: in vivo
Homo sapiens [24] = test: Toxicity in human at 0.1 to 120 mg, po; format: organism-based; details: in vivo
Mus musculus [25] = test: Antidiabetic activity in C57BL/6J mouse assessed as reduction in glucose AUC at 0.03 mg/kg, po by oral glucose tolerance test relative to vehicle-treated control; format: functional; set-up: scale not given: the % may be the effect or the level left
Rattus norvegicus [26] = test: Tmax in Sprague-Dawley rat at 5 mg/kg, po; format: ADME, organism-based; set-up: dose 5 mg/kg, route oral; details: in vivo
Mus musculus [27] = test: Antidiabetic activity in C57BL/6J mouse assessed as reduction in glucose AUC at 1 mg/kg, po by oral glucose tolerance test relative to vehicle-treated control; format: functional; set-up: scale not given: the % may be the effect or the level left
[28] = Terminal half life in human at 0.1 to 120 mg, po; format: ADME, organism-based; details: in vivo, read-out: beta t1/2 (converted)
Mus musculus [29] = test: Antidiabetic activity in db/db mouse assessed as reduction in blood glucose level at 0.01 mg/kg, po qd administered 1 hr prior glucose challenge measured after 21 days by oral glucose tolerance test; format: functional; set-up: scale not given: the % may be the effect or the level left
[30] = Half life in mouse; format: ADME, organism-based; details: in vivo
[31] = target: T2, Glucose-dependent insulinotropic receptor (Homo sapiens, UniProt Q8TDV5); test: Agonist activity at human GPR119
T2 sequence (Q8TDV5 whole entry): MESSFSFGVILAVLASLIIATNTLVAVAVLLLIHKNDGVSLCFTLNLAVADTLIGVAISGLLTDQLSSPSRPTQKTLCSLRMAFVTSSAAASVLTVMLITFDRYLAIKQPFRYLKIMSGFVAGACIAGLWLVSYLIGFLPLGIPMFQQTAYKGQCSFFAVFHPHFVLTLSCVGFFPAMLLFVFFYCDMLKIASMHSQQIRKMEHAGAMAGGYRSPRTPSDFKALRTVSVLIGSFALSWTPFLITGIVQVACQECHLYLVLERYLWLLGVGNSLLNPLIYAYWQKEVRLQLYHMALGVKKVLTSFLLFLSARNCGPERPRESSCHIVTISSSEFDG

[32] = Oral bioavailability in Sprague-Dawley rat at 5 mg/kg administered as suspension; format: ADME, organism-based; details: in vivo
Mus musculus [33] = test: Antidiabetic activity in db/db mouse assessed as reduction in blood glucose level at 30 mg/kg, po qd administered 1 hr prior glucose challenge measured after 21 days by oral glucose tolerance test; format: functional; set-up: scale not given: the % may be the effect or the level left
Mus musculus [34] = test: Antidiabetic activity in db/db mouse assessed as reduction in glucose AUC at 300 mg/kg, po qd administered 1 hr prior glucose challenge measured after 21 days by oral glucose tolerance test relative to control; format: functional; set-up: scale not given: the % may be the effect or the level left
Mus musculus [35] = test: Antidiabetic activity in db/db mouse assessed as HbA1C level at 300 mg/kg, po qd administered 1 hr prior glucose challenge measured after 21 days by oral glucose tolerance test (reference value: 2.8%); format: functional
[36] = Permeability of the compound by PAMPA assay; format: ADME; details: read-out: permeability
[37] = Protein binding in rat plasma; format: ADME, cell-free; details: read-out: PPB
[38] = target: T3, Glucose-dependent insulinotropic receptor (Homo sapiens) (UniProt Q8TDV5); test: Intrinsic activity at human GPR119 relative to control
T3 sequence (whole entry): T2 sequence (Q8TDV5 whole entry)

[39] = AUC in C57BL/6 mouse at 30 mg/kg, po; format: ADME, organism-based; set-up: dose 30 mg/kg, route oral; details: plasma
Mus musculus [40] = test: Antidiabetic activity in db/db mouse assessed as reduction in HbA1C level at 0.3 mg/kg, po qd administered 1 hr prior glucose challenge measured after 21 days by oral glucose tolerance test relative to control; format: functional; set-up: scale not given: the % may be the effect or the level left
Mus musculus [41] = test: Antidiabetic activity in db/db mouse assessed as reduction in glucose AUC at 30 mg/kg, po qd administered 1 hr prior glucose challenge measured after 21 days by oral glucose tolerance test relative to control; format: functional; set-up: scale not given: the % may be the effect or the level left
Mus musculus [42] = test: Antidiabetic activity in db/db mouse assessed as reduction in blood glucose level at 0.3 mg/kg, po qd administered 1 hr prior glucose challenge measured after 21 days by oral glucose tolerance test; format: functional; set-up: scale not given: the % may be the effect or the level left
hERG (KCNH2) = hERG (KCNH2) (Homo sapiens, UniProt Q12809); test: Inhibition of human ERG at 10 uM by patch clamp assay
Mus musculus [43] = test: Antidiabetic activity in db/db mouse assessed as reduction in HbA1C level at 3 mg/kg, po qd administered 1 hr prior glucose challenge measured after 21 days by oral glucose tolerance test relative to control; format: functional; set-up: scale not given: the % may be the effect or the level left
[44] = Terminal half life in C57BL/6 mouse at 30 mg/kg, po; format: ADME, organism-based; set-up: dose 30 mg/kg, route oral; details: in vivo, read-out: beta t1/2 (converted)
[45] = Cmax in C57BL/6 mouse at 30 mg/kg, po after 2 hrs; format: ADME, organism-based; set-up: dose 30 mg/kg, route oral; details: in vivo
[46] = Solubility of the compound at pH 1; format: physicochemical; details: buffer
Mus musculus [47] = test: Antidiabetic activity in db/db mouse assessed as reduction in glucose AUC at 3 mg/kg, po qd administered 1 hr prior glucose challenge measured after 21 days by oral glucose tolerance test relative to control; format: functional; set-up: scale not given: the % may be the effect or the level left
[48] = Permeability of the compound across human Caco2 cells; format: ADME, cell-based; details: Caco-2, read-out: permeability
Mus musculus [49] = test: Antidiabetic activity in db/db mouse assessed as HbA1C level at 30 mg/kg, po qd administered 1 hr prior glucose challenge measured after 21 days by oral glucose tolerance test (reference value: 2.8%); format: functional

Sequence of hERG (KCNH2) (Q12809 whole entry): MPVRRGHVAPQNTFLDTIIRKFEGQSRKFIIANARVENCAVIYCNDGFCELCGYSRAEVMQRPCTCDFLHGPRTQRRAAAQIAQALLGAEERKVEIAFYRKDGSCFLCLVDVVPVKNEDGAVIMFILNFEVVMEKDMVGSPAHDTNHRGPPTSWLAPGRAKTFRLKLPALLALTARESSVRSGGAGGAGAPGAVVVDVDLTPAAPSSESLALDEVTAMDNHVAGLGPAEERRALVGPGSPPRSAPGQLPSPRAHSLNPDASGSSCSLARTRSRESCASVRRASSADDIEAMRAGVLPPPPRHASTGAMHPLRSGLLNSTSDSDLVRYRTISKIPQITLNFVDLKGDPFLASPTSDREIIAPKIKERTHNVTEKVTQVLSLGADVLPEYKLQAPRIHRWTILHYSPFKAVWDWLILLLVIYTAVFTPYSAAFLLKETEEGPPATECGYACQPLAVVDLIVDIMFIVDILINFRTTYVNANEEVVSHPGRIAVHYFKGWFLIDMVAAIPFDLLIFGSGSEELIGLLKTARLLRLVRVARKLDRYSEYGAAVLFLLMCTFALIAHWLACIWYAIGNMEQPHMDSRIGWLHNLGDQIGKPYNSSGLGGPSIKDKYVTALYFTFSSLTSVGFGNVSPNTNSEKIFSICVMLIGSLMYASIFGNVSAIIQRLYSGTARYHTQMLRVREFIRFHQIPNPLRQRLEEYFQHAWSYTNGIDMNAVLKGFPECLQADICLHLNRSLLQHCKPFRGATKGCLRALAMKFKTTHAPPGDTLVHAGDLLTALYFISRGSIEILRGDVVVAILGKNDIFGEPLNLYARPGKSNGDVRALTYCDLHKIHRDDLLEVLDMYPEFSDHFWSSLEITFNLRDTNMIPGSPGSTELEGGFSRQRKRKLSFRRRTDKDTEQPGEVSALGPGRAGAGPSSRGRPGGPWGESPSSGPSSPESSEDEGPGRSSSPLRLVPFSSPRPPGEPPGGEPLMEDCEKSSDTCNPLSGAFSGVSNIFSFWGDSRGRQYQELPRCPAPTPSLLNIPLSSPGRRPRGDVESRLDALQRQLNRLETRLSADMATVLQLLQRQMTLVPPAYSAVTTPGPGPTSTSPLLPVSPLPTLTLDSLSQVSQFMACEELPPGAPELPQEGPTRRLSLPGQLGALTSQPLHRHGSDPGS

clearance [2]: 0.09 L/h/kg | t1/2 (Rattus norvegicus [4]): 0.367 h | fraction unbound [5]: 0.005 | half-life [6]: 1.4 h | Cmax (Rattus norvegicus [7]): 2.7 µM | solubility [8]: < 0.001 mg/mL | bioavailability [9]: 87% | IC50 [11]: > 40 µM | Vd [16]: 2.2 L/kg | EC50 [17]: > 50 µM | AUC (Rattus norvegicus [19]): 95 µM·h | solubility [23]: 0.041 mg/mL (≈ 79.9 µM) | Tmax (Rattus norvegicus [26]): 4 h | half-life [28]: 36 h | half-life [30]: 0.25 h | EC50 [31]: 0.014 µM | bioavailability [32]: 33%
SMILES: CS(=O)(=O)c1ccc(-n2cc(Cl)c(OC3CCN(c4ncc(Cl)cn4)CC3)cc2=O)c(F)c1 [BMS-903452]
Activity (Mus musculus [1]): 13% | Activity (Salmonella typhimurium): Non-toxic | Activity (Mus musculus [3]): Active | Activity (Rattus norvegicus [10]): Active | Activity (Mus musculus [12]): 39% | Activity (HepG2): Non-toxic | Activity (Mus musculus [13]): 36% | Activity (Mus musculus [14]): 37% | Activity (Homo sapiens [15]): 20% | Activity (Homo sapiens [18]): 50% | Activity (Oryctolagus cuniculus): Non-toxic | Activity (Homo sapiens [20]): inactive | Activity (Homo sapiens [21]): Dose-dependent effect | Activity (Rattus norvegicus [22]): Active | Activity (Cynomolgus monkey): Non-toxic | Activity (Homo sapiens [24]): Non-toxic | Activity (Mus musculus [25]): 14% | Activity (Mus musculus [27]): 40% | Activity (Mus musculus [29]): 18% | Activity (Mus musculus [33]): 38%

SMILES: CN(C)C(=N)NC(=N)N [METFORMIN]
Activity (Mus musculus [34]): 83% | Activity (Mus musculus [35]): 1.4%

Papp [36]: 320 nm/s | fraction unbound [37]: 0.01 | IC50 [11]: > 40 µM | Intrinsic activity [38]: 1 | EC50 [17]: > 50 µM | AUC [39]: 245 µM·h | half-life [44]: 2.4 h | Cmax [45]: 38.6 µM | solubility [46]: 0.63 mg/mL (≈ 1290 µM) | Papp [48]: 220 nm/s | EC50 [31]: 0.018 µM
SMILES: CCCc1cnc(N2CCC(Oc3ccn(-c4ccc(S(C)(=O)=O)cc4F)c(=O)c3)CC2)nc1
Activity (HepG2): Non-toxic | Activity (Mus musculus [40]): 0.6% | Activity (Mus musculus [41]): 38% | Activity (Mus musculus [42]): 16% | inhibition at 10 µM (hERG (KCNH2)): 47% | Activity (Mus musculus [43]): 0.4% | Activity (Mus musculus [47]): 32% | Activity (Mus musculus [49]): 1.4%

Reference: ChEMBL document CHEMBL3352258 (J Med Chem, 2014)
